Here are results for 13 molecules from patent US7915256B2, “Triazolopyrazine compounds useful for the treatment of degenerative and inflammatory diseases” (Galapagos NV, priority 2006, dated 2011).

Like-named read-outs stand apart in the source and are kept apart here. Some results are limits rather than exact numbers.

As usually defined, the EC50 is the concentration that produces a half-maximal response. What is called IC50 is the point on the concentration scale where inhibition reaches its midpoint.

Assay [1] has as its system MMP1 expression by activated synovial fibroblasts (RASFs). In words: 'MMP assay': MMP1 ELISA on supernatant of complex trigger activated synovial fibroblasts. The class given is cell-based. The following applies: Homo sapiens, Fibroblast, Table 4, 48 hrs. Here is the method: A 384-well format ELISA for measurement of MMP1 is developed. Various primary antibodies are tested, as well as various ELISA protocols. […] The antibody is diluted in buffer 40 (1.21 g Tris base (Sigma), 0.58 g NaCl (Calbiochem) and 5 ml 10% NaN3 (Sigma) in 1 L milliQ water and adjusted to pH 8.5). After overnight incubation at 4° C., plates are washed with PBS (80 g NaCl, 2 g KCl (Sigma), 11.5 g Na2HPO4.7H2O and 2 g KH2PO4 in 10 L milliQ; pH 7.4) and blocked with 100 μL/well Casein buffer (2% Casein (VWR International) in PBS). Next day, casein buffer is removed from ELISA plates and replaced by 50 μL/well EC buffer (4 g casein, 2.13 g Na2HPO4 (Sigma), 2 g bovine albumin (Sigma), 0.69 g NaH2PO4.H2O (Sigma), 0.5 g CHAPS (Roche), 23.3 g NaCl, 4 ml 0.5 M EDTA pH 8 (Invitrogen), 5 ml 10% NaN3 in 1 L milliQ and adjusted to pH 7.0). 0.25 mM DTT (Sigma) is added to the thawed samples plates. After removal of the EC buffer, 20 μL of sample is transferred to the ELISA plates. After overnight incubation at 4° C. plates are washed twice with PBS and once with PBST (PBS with 0.05% Tween-20 (Sigma)) and incubated with 35 μL/well biotinylated anti-MMP1 antibody solution (R&D). This secondary antibody is diluted in buffer C (0.82 g NaH2PO4.H2O, 4.82 g Na2HPO4, 46.6 g NaCl, 20 g bovine albumin and 4 mL 0.5M EDTA pH 8 in 2 L milliQ and adjusted to pH 7.0) at a concentration of 5 μg/mL. After 2 h of incubation at RT, plates are washed as described above and incubated with 50 μL/well streptavidin-HRP conjugate (Biosource). Streptavidin-HRP conjugate is diluted in buffer C at a concentration of 0.25 μg/mL. After 45 min, plates are washed as described above and incubated for 5 min with 50 μL/well BM Chem ELISA Substrate (Roche). Readout is performed on the Luminoscan Ascent Luminometer (Labsystems) with an integration time of 200 msec or with an Envision reader (Perkin Elmer).
SFs are seeded at a density of 3000 cells/well in 96 well plates. 24 hrs after seeding, increasing concentrations of dexamethasone are added to the cells. […]
(An ELISA detects its analyte on a solid surface through an enzyme-linked reagent.)

For assay [2], the target named is T1, MAPKAPK5 (Homo sapiens, UniProt Q8IW41).
T1 sequence (Q8IW41 1-473): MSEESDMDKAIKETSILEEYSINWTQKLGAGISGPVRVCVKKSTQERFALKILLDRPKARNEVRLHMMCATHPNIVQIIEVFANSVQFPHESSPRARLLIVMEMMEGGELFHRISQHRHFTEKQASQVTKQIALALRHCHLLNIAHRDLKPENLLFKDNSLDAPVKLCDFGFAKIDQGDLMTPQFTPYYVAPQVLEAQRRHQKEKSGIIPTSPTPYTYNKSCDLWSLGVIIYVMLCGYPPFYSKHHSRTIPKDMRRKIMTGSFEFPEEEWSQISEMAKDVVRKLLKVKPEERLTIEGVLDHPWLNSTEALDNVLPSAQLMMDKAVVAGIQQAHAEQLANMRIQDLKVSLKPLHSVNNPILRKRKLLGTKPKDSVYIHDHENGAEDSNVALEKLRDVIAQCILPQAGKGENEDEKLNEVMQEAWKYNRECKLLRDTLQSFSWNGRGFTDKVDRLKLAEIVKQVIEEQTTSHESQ
In words: MAPKAP-K5 assay (FlashPlate, 33P-ATP).
Description: MAPKAP-K5 reactions are performed in FlashPlate format using 0.1 or 0.2 μCi 33P-ATP; 0.6 μM ATP; 1 mU MAPKAP-K5; 3 μM MAPKAP-K5 peptide substrate, incubated at room temperature for 30 minutes.
The MAPKAP-K5 kinase reaction is performed in a 384 well polypropylene plate (Matrix Technologies) and then transferred to a streptavidin-coated 384 well flashplate (Perkin-Elmer).
To wells containing 2 μL test compound or standard inhibitor, 13 μL Enzyme mix or diluent are added using a Hydra (Robbins Scientific).
Reactions are started by addition of 10 μL of [2,5×] substrate cocktail using a Multidrop (Thermo-Labsystems), to give final concentrations in the assay of:
Plates are incubated at room temperature for 30 minutes.
Reactions are terminated by the addition of 25 μL EDTA (50 mM) to each well using a Micro-fill (Biotek).
Reactions are transferred to a streptavidin-coated flashplate using a Zymark robotic system. Plates are incubated for 60 minutes at room temperature.
All wells are washed 3 times with 100 μl phosphate buffered saline using a Tecan plate washer.
Radioactivity is determined by scintillation counting of the flashplate (empty wells) on a Packard TopCount.
Enzyme Mix: • Enzyme • 50 mM Tris Hcl (pH 7.5) • 0.1 mM EGTA • 2 mM DTT • 1 mg/mL BSA
Reaction Buffer: • 50 mM Tris Hcl (pH 7.5) • 0.1 mM EGTA • 10 mM Magnesium acetate • 2 mM DTT

Assay [3] concerns TNFα release by human PBMCs. The assay is described as follows: Cytokine (TNFα) release by LPS stimulated human PBMCs, ELISA. The class given is cell-based. Conditions: ELISA of supernatant. On the procedure: For the assay PBMCs are seeded at 2.5E6 cells/mL in 160 μL in 96-well plates (Nunc). Serial dilution of the test compounds are made first in DMSO (Sigma) and then diluted 50-fold in M199 medium (Gibco) containing 1% heat-inactivated FBS. Compounds are further 1/10 diluted in the assay plates to obtain final DMSO concentration of 0.2%. Cells are preincubated with the compounds for 1 hr at 37° C., 5% CO2. Then, cells are stimulated with LPS (Escherichia coli serotype 026:B6, Cat. No. L2654, Sigma) that is added in a volume of 20 μL to a final concentration of 1 μg/mL and cells are further cultured for 24 hr. The plates are centrifuged and the supernatant is collected and stored at −80° C. until analysis of appropriate dilutions in ELISAs.
After 4 hr incubation at RT, blocking buffer is removed and plates are washed once with PBST (1×PBS with 0.05% Tween-20 (Sigma)). Then, 40 μL of sample is transferred to the ELISA plates and plates are incubated at 4° C. […] Readout is performed on the Luminoscan Ascent Luminometer (Labsystems) with an integration time of 100 msec delivering raw data (RLU: relative luminescence units). […] Where compounds are tested at 8 concentrations (1/3 serial dilution), EC50-values can be calculated by curve fitting of the means of the PIN data achieved for a compound at each test concentration.

Where [4] appears, read: Table 1, 0.6 μM ATP, 30 minutes room temperature.
Setting [5] is: read-out: MAPKAPK5 IC50, Table 1, 0.6 μM ATP, 30 minutes room temperature.

Molecule `O=C(NCc1ccc(O)cc1)c1cccc(Nc2ncc(-c3cn[nH]c3)n3ncnc23)c1` [Compound 131, N-(4-Hydroxybenzyl) 3-[5-(1H-pyrazol-4-yl)-[1,2,4]triazolo[1,5-a]pyrazin-8-ylamino]benzamide] displayed an EC50 in assay [1] of more than 1000 nM.

For `CC(C)N1CCC(c2ccc(Nc3ncc(-c4cnc5c(c4)CNC5=O)n4ncnc34)cc2)CC1` [Compound 190], the IC50 in assay [2] lay within 101 to 500 nM. With `CCN1CCCC1CNC(=O)c1ccc(Nc2ncc(-c3cn[nH]c3)n3ncnc23)cc1` (centres unmarked) [Compound 163], the IC50 in assay [2] is 101 to 500 nM. As for `Clc1cc(Nc2ncc(-c3cn[nH]c3)n3ncnc23)ccc1N1CCOCC1` [Compound 18], the “MAPKAPK5 IC50 (nM)” value in assay [2] (setting [4]) is “=”. On to `CC(C)N1CCN(c2ccc(Nc3ncc(-c4cc(F)c(C(N)=O)c(F)c4)n4ncnc34)cc2)CC1` [Compound 26], for which, in assay [2] (setting [4]), the “MAPKAPK5 IC50 (nM)” value is given as “=”. `NC(=O)c1ccc(-c2cnc(Nc3ccc(OCCN4CCOCC4)cc3)c3ncnn23)s1` [Compound 22, 5-(8-(4-(2-Morpholinoethoxy)phenylamino)-[1,2,4]triazolo[1,5-a]pyrazin-5-yl)thiophene-2-carboxamide]: the IC50 in assay [2] (setting [5]) is more than 1000 nM. As to `NC(=O)c1c(F)cc(-c2cnc(Nc3ccc(N4CCOCC4)cc3)c3ncnn23)cc1F` [Compound 14], the “MAPKAPK5 IC50 (nM)” value in assay [2] (setting [4]) is recorded as “=”. As for `O=C(N[C@H]1CCN(Cc2ccccc2)C1)c1ccc(Nc2ncc(-c3cn[nH]c3)n3ncnc23)cc1` [Compound 191], the EC50 in assay [1] was more than 1000 nM. The molecule `C[C@@H]1CN(c2ccc(Nc3ncc(-c4csc(C(N)=O)c4)n4ncnc34)cc2)[C@@H](C)CN1C` [Compound 32] displayed an EC50 in assay [3] (Homo sapiens, PBMC, 24 h, Table 5, LPS 1 μg/mL) of 101 to 500 nM.

For `O=C(N[C@@H]1CCN(Cc2ccccc2)C1)c1ccc(Nc2ncc(-c3cn[nH]c3)n3ncnc23)cc1` [Compound 147], the IC50 in assay [2] fell in the range of 101 to 500 nM. In assay [1], the EC50 is more than 1000 nM. For `NC(=O)c1cc(-c2cnc(Nc3ccc(N4CCN(CC5CC5)CC4)nc3)c3ncnn23)cs1` [Compound 54, 4-{8-[6-(4-[Cyclopropylmethyl]piperazin-1-yl)-pyridin-3-ylamino]-[1,2,4]triazolo[1,5-a]pyrazin-5-yl}thiophene-2-carboxylic acid amide], in assay [3] (Table 5, LPS 1 μg/mL, 24 hr, read-out: PBMC EC50), the EC50 was more than 1000 nM.

`CN(C)Cc1cc(Nc2ncc(-c3ccc4c(c3)CNC4=O)n3ncnc23)ccc1N1CCNCC1` [Compound 175]: the IC50 in assay [2] is 101 to 500 nM. As to `NC(=O)c1cc(-c2cnc(Nc3ccc(OCCN4CCOCC4)cc3)c3ncnn23)cs1` [Compound 21, 4-(8-(4-(2-Morpholinoethoxy)phenylamino)-[1,2,4]triazolo[1,5-a]pyrazin-5-yl)thiophene-2-carboxamide], the IC50 in assay [2] (setting [5]) was in the range of 501 to 1000 nM.
